Data reported in patent publication US20260124167A1, “SIRTUIN ACTIVATOR OR EXPRESSION ENHANCER, NAD+ INCREASING AGENT, AND SENESCENT CELL INHIBITOR” (WAKUNAGA PHARMACEUTICAL CO., LTD., priority 2022, published 2026).

Columns and labels:
p21 gene = assay: Suppression of senescent cell marker p21 gene expression in the kidney (in vivo); details: SAMP8 mice, repeated oral administration for two weeks, real-time PCR; FIG. 7
Experimental: (§1) (a) About 5 mg of S-1-propenylcysteine (cis/trans mixture) produced in Preparation Example 2 was weighed precisely, and dissolved in 10 mL of purified water to prepare an administration liquid. (b) About 6 mg of S-1-propenylcysteine (cis/trans mixture) produced in Preparation Example 2 was weighed precisely and dissolved in 1 mL of culture liquid. The liquid was used as a stock solution, diluted appropriately, and subjected to an in vitro test.
(§2) Animals for evaluating the biological activity were bred as follows. Senescence-accelerated mice SAMP8 (male) for testing were purchased from Japan SLC, Inc. After purchase, the animals were acclimatized for one week and used as animals for the evaluation tests.
(§3) After repeated oral administration of the sample prepared in the above (1) (a) to the animals for the evaluation tests in the above (2) for two weeks, kidneys of such animals were excised. The kidneys were crushed using an automatic tissue crusher, and then RNA was extracted using a TRIzol solution manufactured by Thermo Fisher Scientific K.K. CDNA was synthesized using PRIMEScript RT reagent Kit with gEraser manufactured by Takara. The synthesized cDNA was subjected to real-time PCR using KAPA SYBR Fast qPCR kit manufactured by Nippon Genetics Co., Ltd. The results are shown in FIG. 7. […]

SIRT1 protein [1] = assay: SIRT1 protein increasing action in cerebral cortex, hippocampus, heart, lung, liver, kidney, and skeletal muscle (in vivo); details: SAMP8 mice, about 10 mg in 10 mL liquid, repeated oral administration for two weeks; FIG. 11
Experimental: as §2
About 10 mg of S-1-propenylcysteine (cis/trans mixture) produced in Preparation Example 2 was weighed precisely, and dissolved in 10 mL of purified water to prepare an administration liquid. After repeated oral administration of the prepared sample to animals for the evaluation tests in the above (2) for two weeks, cerebral cortexes, hippocampi, hearts, lungs, livers, kidneys, and skeletal muscles of such animals were excised. After the cerebral cortexes, hippocampi, hearts, lungs, livers, kidneys, and skeletal muscles were crushed using an automatic tissue crusher, the cells were lysed with a RIPA cell lysis buffer manufactured by Millipore Corporation which was diluted 10-fold with purified water added with combined protease/phosphatase inhibitors manufactured by Thermo Fisher Scientific K.K., and then centrifuged (10,000 rpm, 10 min, 4° C.), and the supernatant was used as a cell extract. The cell extract was used for analysis by Western Blotting according to a conventional method. […]

SIRT1 protein [2] = assay: SIRT1 protein increasing action (in vivo), hippocampus, Western Blotting; details: SAMP8 mice, repeated oral administration for two weeks; FIG. 3
Experimental: as §1, §2
After repeated oral administration of the sample prepared in the above (1) (a) to animals for the evaluation tests in the above (2) for two weeks, hippocampi of such animals were excised. After the hippocampi were crushed using an automatic tissue crusher, the cells were lysed with a RIPA cell lysis buffer manufactured by Millipore Corporation which was diluted 10-fold with purified water added with combined protease/phosphatase inhibitors manufactured by Thermo Fisher Scientific K.K., and then centrifuged (10,000 rpm, 10 min, 4° C.), and the supernatant was used as a cell extract. The cell extract was used for analysis by Western Blotting according to a conventional method. […]

NAD^+ [3] = assay: NAD+ amount increasing action in kidney, skeletal muscle, and liver (in vivo); details: SAMP8 mice, single oral dose, 60 minutes later; FIG. 10
Experimental: as §1, §2
A single dose of the sample prepared in the above (1) (a) was orally administrated to animals for the evaluation tests in the above (2), and then cerebral cortexes, livers, kidneys, and skeletal muscles of such animals were extracted 60 minutes later. The NAD^+ amounts in the cerebral cortexes, livers, kidneys, and skeletal muscles were measured using NAD^+/NADH Assay Kit manufactured by Dojindo Laboratories. S-1-propenylcysteine increased the NAD^+ amount.

KIM-1 = assay: Inhibitory action on kidney injuries (in vivo), KIM-1 Western Blotting; details: SAMP8 mice, repeated oral administration for two weeks, FIG. 8
Experimental: as §1, §2
(§4) After repeated oral administration of the sample prepared in the above (1) (a) to the animals for the evaluation tests in the above (2) for two weeks, kidneys of such animals were excised. After the kidneys were crushed using an automatic tissue crusher, the cells were lysed with an RIPA cell lysis buffer manufactured by Millipore Corporation which was diluted 10-fold with purified water added with a protease inhibitor and a phosphatase inhibitor manufactured by Roche and then centrifuged (10,000 rpm, 10 min, 4° C.), and the supernatant was used as a cell extract. The cell extract was used for analysis by Western Blotting according to a conventional method. […]

SIRT1 protein [4] = assay: SIRT1 protein increasing action in hypothalamus (in vivo); details: SAMP8 mice fed diet mixed with sample (0.001% liquid) for 10 months; FIG. 12
Experimental: S-1-propenylcysteine (cis/trans mixture) produced in Preparation Example 2 was dissolved at a concentration of 0.001% in purified water to prepare an administration liquid. Animals for evaluating the biological activity were bred as follows. Senescence-accelerated mice SAMR1 (male) and SAMP8 (male) for testing were purchased from Japan SLC, Inc. After purchase, the animals were acclimatized for one week and used as animals for the evaluation tests. These animals for the evaluation tests were fed with regular diet and SAMP8 were fed with the diet mixed with the sample prepared above for 10 months, and then hypothalamuses of such animals were excised. After the hypothalamuses were crushed using an automatic tissue crusher, the cells were lysed with a RIPA cell lysis buffer manufactured by Millipore Corporation which was diluted 10-fold with purified water added with combined protease/phosphatase inhibitors manufactured by Thermo Fisher Scientific K.K., and then centrifuged (10,000 rpm, 10 min, 4° C.), and the supernatant was used as a cell extract. The cell extract was used for analysis by Western Blotting according to a conventional method. An anti-SIRT1 antibody (manufactured by Biolegend) and an anti-β-actin antibody (manufactured by Fujifilm Wako Pure Chemical Corporation) were used as antibodies. S-1-propenylcysteine increased the SIRT1 protein mass.

p16 gene = assay: Suppression of senescent cell marker p16 gene expression in the kidney (in vivo); details: SAMP8 mice, repeated oral administration for two weeks, real-time PCR; FIG. 7
Experimental: as §1, §2, §3

p53 protein = assay: Suppression of cellular senescence marker p53 protein in the hippocampus (in vivo); details: SAMP8 mice, repeated oral administration for six weeks; FIG. 5
Experimental: as §1, §2
as §4, with “to” for “to the”, “for six” for “for two”, “weeks, hippocampi” for “weeks, kidneys”, “the hippocampi” for “the kidneys”, “with a” for “with an”, “by Roche,” for “by Roche”

SIRT1 protein [5] = assay: SIRT1 protein amount-increasing effect in liver and heart (in vivo); set-up: species or system mice; details: animals prepared as in (12) (SAMR1, SAMP8), repeated oral administration for two weeks; FIG. 13
[6] = test system: Senescence-accelerated mice SAMP8; assay: Cognitive/memory retention action (in vivo), passive avoidance test; details: mixed with food for four months, holding trial after two months, FIG. 9
Experimental: as §1, §2
The sample prepared in the above (1) (a) was mixed with food and fed to animals for evaluation test in the above (2) for four months, and then a passive avoidance test was performed. The passive avoidance test is a test utilizing a habit that a mouse prefers a dark place, and on Day 1, a mouse already in a bright room was moved to a dark room while receiving an electrical shock (50 V/1 second), and the time it took for the mouse to enter the dark room was taken as response latency of an acquisition trial. After two months, the mouse was put in the bright room again and the time it took to move to the dark room (the response latency of a holding trial) was used as an index of memory.

SIRT1 = target: T1, SIRT1 (Mus musculus, UniProt Q923E4); assay: SIRT1 activation action (in vivo), cerebral cortex lysate, SIRT1_GLO kit; details: SAMP8 mice, single oral dose, 180 minutes after administration; FIG. 2
T1 construct: from tissue; host or cells: cerebral cortex of SAMP8 mice
T1 sequence (Q923E4 1-737): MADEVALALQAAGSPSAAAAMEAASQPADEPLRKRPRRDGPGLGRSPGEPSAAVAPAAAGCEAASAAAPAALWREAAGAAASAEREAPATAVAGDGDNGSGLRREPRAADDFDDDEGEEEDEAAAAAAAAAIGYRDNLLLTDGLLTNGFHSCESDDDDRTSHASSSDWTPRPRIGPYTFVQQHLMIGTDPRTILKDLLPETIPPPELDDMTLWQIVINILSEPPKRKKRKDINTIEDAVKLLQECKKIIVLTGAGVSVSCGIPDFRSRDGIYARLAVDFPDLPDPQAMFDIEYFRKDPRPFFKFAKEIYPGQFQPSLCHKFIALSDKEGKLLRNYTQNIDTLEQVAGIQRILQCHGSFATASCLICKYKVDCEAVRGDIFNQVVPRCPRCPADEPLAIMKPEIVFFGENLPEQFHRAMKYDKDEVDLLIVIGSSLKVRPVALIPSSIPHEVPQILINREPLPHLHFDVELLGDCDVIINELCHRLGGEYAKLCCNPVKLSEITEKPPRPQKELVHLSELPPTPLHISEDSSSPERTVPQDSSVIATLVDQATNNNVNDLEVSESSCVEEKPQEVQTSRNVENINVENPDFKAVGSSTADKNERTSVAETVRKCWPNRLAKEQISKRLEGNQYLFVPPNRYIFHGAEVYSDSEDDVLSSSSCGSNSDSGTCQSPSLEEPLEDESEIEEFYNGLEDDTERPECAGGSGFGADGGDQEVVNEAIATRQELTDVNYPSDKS
Experimental: as §1, §2
A SIRT1_GLO kit manufactured by Promega Corporation was purchased to measure the sirtuins activity. A lysate of the cerebral cortex was placed in a 96-well plate, various reaction reagents were added, and then luminous intensity of luciferase was measured by a plate reader.
A single dose of the sample prepared in the above (1) (a) was orally administrated to animals for the evaluation tests in the above (2), and then cerebral cortices of such animals were extracted 15, 30, 60, and 180 minutes later. […] Centrifugation was performed and the sirtuins activity in the supernatant thereof was measured. […]

lipocalin-2 (NGAL) = assay: Inhibitory action on kidney injuries (in vivo), NGAL Western Blotting; details: SAMP8 mice, repeated oral administration for two weeks, FIG. 8
Experimental: as §1, §2, §4

SIRT1 gene = assay: Enhancement of SIRT1 gene expression in kidney (in vivo), real-time PCR; details: SAMP8 mice, repeated oral administration for two weeks, FIG. 6
Experimental: as §1, §2
After repeated oral administration of the sample prepared in the above (1) (a) to the animals for the evaluation tests in the above (2) for two weeks, kidneys of such animals were excised. The kidneys were crushed using an automatic tissue crusher, and then RNA was extracted using a TRIzol solution manufactured by Thermo Fisher Scientific K.K. CDNA was synthesized using PRIMEScript RT reagent Kit with gEraser manufactured by Takara. The synthesized CDNA was subjected to real-time PCR using KAPA SYBR Fast qPCR kit manufactured by Nippon Genetics Co., Ltd. The results are shown in FIG. 6. S-1-propenylcysteine increased the SIRT1 expression in the mouse kidney.

NAD^+ [7] = assay: NAD+ amount increasing action (in vivo), NAD+/NADH Assay Kit; details: SAMP8 mice, single oral dose (180 minutes later) and mixed with food for one month; FIG. 4
Experimental: as §1, §2
A single dose of the sample prepared in (1) (a) was orally administered to animals for the evaluation tests in the above (2), and then cerebral cortices of such animals were excised 180 minutes later. In addition, the sample prepared in the above (1) (a) was mixed with food and fed to animals for the evaluation tests in the above (2) for one month, and then cerebral cortices of such animals were excised. The NAD^+ amount in the cerebral cortices was measured using NAD^+/NADH Assay Kit manufactured by Dojindo Laboratories. S-1-propenylcysteine increased NAD^+ amount.

sirtuin activity in cerebral cortex (SIRT1): increased
SMILES: CC=CSC[C@H](N)C(=O)O [S-1-propenylcysteine]
cells expressing p21 gene in the kidneys (p21 gene): reduced
SIRT1 protein mass in cerebral cortexes, hippocampi, hearts, lungs, livers, kidneys, and skeletal muscles (SIRT1 protein [1]): increased
SIRT1 protein mass in hippocampus (SIRT1 protein [2]): increased
NAD^+ amount in cerebral cortexes, livers, kidneys, and skeletal muscles (NAD^+ [3]): increased
KIM-1 (marker of kidney injuries) in kidney (KIM-1): reduced
SIRT1 protein mass in hypothalamus (SIRT1 protein [4]): increased
cells expressing p16 gene in the kidneys (p16 gene): reduced
p53 protein mass in hippocampus (p53 protein): reduced
SIRT1 protein mass in livers and hearts (SIRT1 protein [5]): increased
cognitive and memory functions (response latency, passive avoidance test) [6]: ameliorated aging-related decline in cognitive and memory functions
NGAL (marker of kidney injuries) in kidney (lipocalin-2 (NGAL)): reduced
SIRT1 expression in kidney (SIRT1 gene): increased
NAD^+ amount in cerebral cortices (NAD^+ [7]): increased
